The record followed here is ChEMBL document CHEMBL1149115, “Unraveling the active conformation of urotensin II” (J Med Chem, 2004).

Structures are written as SMILES.

This assay in a line: Effective concentration of compound in producing vasoconstrictions was determined. It counts as functional.
In the case of `CC(C)[C@H](NC(=O)[C@@H]1NC(=O)[C@H](Cc2ccc(O)cc2)NC(=O)[C@H](CCCCN)NC(=O)[C@H](Cc2c[nH]c3ccccc23)NC(=O)[C@H](Cc2ccccc2)NC(=O)[C@@H](NC(=O)[C@@H](N)CC(=O)O)CSSC1(C)C)C(=O)O`, the pD2 came out at 6.7. On to `CC(C)[C@H](NC(=O)[C@@H]1CSSC(C)(C)[C@@H](NC(=O)[C@@H](N)CC(=O)O)C(=O)N[C@@H](Cc2ccccc2)C(=O)N[C@@H](Cc2c[nH]c3ccccc23)C(=O)N[C@@H](CCCCN)C(=O)N[C@@H](Cc2ccc(O)cc2)C(=O)N1)C(=O)O`, for which the pD2 is 9.6. The same measure for `CC(C)[C@H](NC(=O)[C@@H]1CSSC[C@@H](NC(=O)[C@@H](N)CC(=O)O)C(=O)N[C@@H](Cc2ccccc2)C(=O)N[C@@H](Cc2c[nH]c3ccccc23)C(=O)N[C@@H](CCCCN)C(=O)N[C@@H](Cc2ccc(O)cc2)C(=O)N1)C(=O)O`: 8.6. The same measure for `CC(C)[C@H](NC(=O)[C@@H]1CSSC[C@@H](NC(=O)[C@H](CC(=O)O)NC(=O)[C@H]2CCCN2C(=O)[C@@H](NC(=O)[C@@H](N)CCC(=O)O)[C@@H](C)O)C(=O)N[C@H](Cc2ccccc2)C(=O)N[C@@H](Cc2c[nH]c3ccccc23)C(=O)N[C@H](CCCCN)C(=O)N[C@@H](Cc2ccc(O)cc2)C(=O)N1)C(=O)O`: 8.3; for `CC(C)[C@H](NC(=O)[C@@H]1NC(=O)[C@H](Cc2ccc(O)cc2)NC(=O)[C@H](CCCCN)NC(=O)[C@H](Cc2c[nH]c3ccccc23)NC(=O)[C@H](Cc2ccccc2)NC(=O)[C@H](NC(=O)[C@@H](N)CC(=O)O)C(C)(C)SSC1(C)C)C(=O)O`: 8.2. The figure for `CC(C)[C@H](NC(=O)[C@@H]1CCSSC[C@H](NC(=O)[C@@H](N)CC(=O)O)C(=O)N[C@@H](Cc2ccccc2)C(=O)N[C@@H](Cc2c[nH]c3ccccc23)C(=O)N[C@@H](CCCCN)C(=O)N[C@@H](Cc2ccc(O)cc2)C(=O)N1)C(=O)O` is less than 6.5.
